# Assay results published in publication PMC5484120 (Marine Drugs, 2017).
# Molecular target: T1, rα1β1εδ nAChR (UniProt P20782+P25108+P25109+P25110)
# T1 construct: expressed in transfected cells; host or cells: Xenopus laevis oocytes injected with cRNA
# Test: cell-based
# Design: species or system rodent: rat (α1, β1, and δ), mouse (ε)
# T1 sequence (P20782 21-493): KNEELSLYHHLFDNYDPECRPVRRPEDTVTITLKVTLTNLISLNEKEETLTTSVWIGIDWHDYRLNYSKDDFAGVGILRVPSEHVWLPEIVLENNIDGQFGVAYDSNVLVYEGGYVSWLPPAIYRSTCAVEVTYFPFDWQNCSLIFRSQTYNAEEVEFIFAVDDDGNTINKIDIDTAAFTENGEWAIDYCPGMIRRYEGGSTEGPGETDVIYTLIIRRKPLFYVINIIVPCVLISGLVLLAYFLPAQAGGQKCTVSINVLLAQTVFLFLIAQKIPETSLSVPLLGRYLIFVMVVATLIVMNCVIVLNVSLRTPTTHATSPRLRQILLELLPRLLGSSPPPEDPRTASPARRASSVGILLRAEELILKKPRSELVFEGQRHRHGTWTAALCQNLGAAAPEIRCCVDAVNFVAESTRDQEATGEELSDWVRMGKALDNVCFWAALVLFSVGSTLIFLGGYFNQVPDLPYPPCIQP
# T1 sequence (P25108 21-457): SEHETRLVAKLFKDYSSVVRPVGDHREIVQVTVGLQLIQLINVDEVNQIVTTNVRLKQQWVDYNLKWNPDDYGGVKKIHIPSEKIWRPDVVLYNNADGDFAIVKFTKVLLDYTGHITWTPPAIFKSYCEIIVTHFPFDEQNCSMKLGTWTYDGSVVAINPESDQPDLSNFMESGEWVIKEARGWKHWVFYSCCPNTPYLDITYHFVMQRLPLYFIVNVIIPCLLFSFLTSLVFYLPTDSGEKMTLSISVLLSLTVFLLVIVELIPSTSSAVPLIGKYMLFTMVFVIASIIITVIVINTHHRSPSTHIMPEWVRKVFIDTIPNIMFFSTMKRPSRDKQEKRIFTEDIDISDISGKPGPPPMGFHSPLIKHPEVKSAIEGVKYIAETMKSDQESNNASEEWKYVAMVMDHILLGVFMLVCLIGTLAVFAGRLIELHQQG
# T1 sequence (P25109 24-501): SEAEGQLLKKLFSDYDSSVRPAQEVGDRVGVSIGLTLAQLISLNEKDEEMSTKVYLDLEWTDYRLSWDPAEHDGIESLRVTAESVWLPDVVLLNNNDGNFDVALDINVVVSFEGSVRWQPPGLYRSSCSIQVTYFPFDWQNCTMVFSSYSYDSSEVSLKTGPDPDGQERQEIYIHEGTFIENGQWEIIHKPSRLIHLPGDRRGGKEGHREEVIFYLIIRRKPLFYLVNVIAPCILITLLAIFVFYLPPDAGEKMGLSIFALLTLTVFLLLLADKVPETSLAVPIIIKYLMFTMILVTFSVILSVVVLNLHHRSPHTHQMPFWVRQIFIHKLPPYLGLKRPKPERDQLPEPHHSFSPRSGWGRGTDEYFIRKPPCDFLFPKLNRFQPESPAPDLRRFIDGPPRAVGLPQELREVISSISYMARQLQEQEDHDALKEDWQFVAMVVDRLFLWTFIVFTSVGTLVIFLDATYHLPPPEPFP
# T1 sequence (P25110 22-517): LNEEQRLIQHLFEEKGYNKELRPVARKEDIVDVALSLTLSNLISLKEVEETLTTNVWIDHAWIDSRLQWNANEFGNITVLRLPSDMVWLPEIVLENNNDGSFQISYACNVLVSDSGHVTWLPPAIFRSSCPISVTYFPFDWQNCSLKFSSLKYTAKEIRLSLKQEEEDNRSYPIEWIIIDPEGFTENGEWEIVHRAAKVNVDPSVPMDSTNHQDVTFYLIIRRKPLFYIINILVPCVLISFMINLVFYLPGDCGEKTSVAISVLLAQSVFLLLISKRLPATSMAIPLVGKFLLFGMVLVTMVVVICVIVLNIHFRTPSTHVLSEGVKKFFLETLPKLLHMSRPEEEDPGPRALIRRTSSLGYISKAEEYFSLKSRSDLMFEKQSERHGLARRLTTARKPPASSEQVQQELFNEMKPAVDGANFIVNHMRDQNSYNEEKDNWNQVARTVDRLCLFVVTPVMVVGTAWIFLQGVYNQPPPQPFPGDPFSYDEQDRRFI
smiles,measurement,value
CSCC[C@H](NC(=O)[C@H](CC(C)C)NC(=O)[C@H](C)N)C(=O)N[C@@H](CO)C(=O)N[C@H](C(=O)NCC(=O)N[C@H](C(=O)N[C@@H](CC(N)=O)C(=O)N[C@@H](Cc1ccc(O)cc1)C(=O)N[C@@H](CCCNC(=N)N)C(=O)N[C@@H](CC(C)C)C(=O)N[C@@H](CC(C)C)C(=O)N[C@@H](CCCCN)C(=O)N[C@H](C(=O)N[C@@H](CSCC(N)=O)C(=O)N[C@@H](CCCNC(=N)N)C(=O)NCC(=O)N[C@@H](CO)C(=O)NCC(=O)N[C@@H](CCCNC(=N)N)C(=O)N[C@@H](Cc1ccc(O)cc1)C(=O)N[C@@H](CSCC(N)=O)C(=O)N[C@@H](CCCNC(=N)N)C(=O)N[C@@H](CO)C(=O)N1CCC[C@H]1C(=O)N[C@@H](Cc1ccc(O)cc1)C(=O)O)[C@@H](C)O)[C@@H](C)O)[C@@H](C)O [GeXXVIIA-L-Nter],IC50,2190 ± 240 nM
same,"IC50 relative to GeXXVIIA-L, rα1β1εδ nAChR",about three-fold higher than GeXXVIIA-L
